The term IC50 denotes the concentration that gives 50% inhibition.

The values that follow come from US20090186915A1, “Compositions and methods for treatment of glioblastoma, gliosarcoma, NSCLC, and head and neck cancer” (Unibioscreen S. A., priority 2006, published 2009).

The structures appear in SMILES notation. Read-outs that look alike come from different tables or passages of the source.

In one data set the test system is CCL2, CXCL-I and CXCL-8. In words: ELISA of CCL2, CXCL1 and CXCL8, Hs683 cells. The format is cell-based, human. Conditions: 1 μM single or 5×1.
The subject of another data set is A549. Put plainly: MTT colorimetric assay, A549 cells. It is filed as cell-based. Conditions: Homo sapiens, 72 h, 3 days of culturing, mean of six determinations, read-out: IC50 (μM) In Vitro Growth Inhibition. On the procedure:
(§1) The overall growth of human cancer cell lines was determined by means of the calorimetric MTT (3-[4,5-dimethylthiazol-2-yl]-diphenyl tetrazolium bromide; Sigma) assay, as detailed previously.
For orientation: Tetrazolium dyes change colour on reduction, which living cells bring about.

The test system of another data set is Rb, pRb. Put plainly: Western blot of Rb and p-Rb, DU-145. Conditions: 10 μM. The format is cell-based, human.
The nature of data set [1]: Body weight of MXT-HI tumor-bearing mice. The format is in vivo, female B6D2F1 mice. To be noted: for Mean body weight: UNBS5162 i.v. (5i × 3w) 10 mg/kg, alone or with 10 gray.
Another data set concerns U-373MG. In words: MTT overall cell growth, U-373MG cells. It is filed as cell-based. Conditions: Homo sapiens. How it is done: Tests were performed in order to rapidly, i.e. within 5 days, measure the effect of the compound of example 2 on the overall cell growth. The test measures the number of metabolically active living cells that are able to transform the yellow product 3-(4,5-dimethylthiazol-2-yl)-2,5-diphenyl tetrazolium bromide (herein referred as MTT) into the blue product formazan dye by mitochondrial reduction. The amount of formazan obtained at the end of the experiment, measured by means of a spectrophotometer, is directly proportional to the number of living cells. Optical density determination thus enables a quantitative measurement of the effect of the investigated compounds as compared to the control condition (untreated cells) and/or to other reference compounds.
Six human cancer cell lines described in table 1 were used in the following MTT tests. These cell lines cover six histological cancer types, being prostate, glioma, pancreas, colon, lung and breast cancers. Cells were allowed to grow in 96 well micro-wells with a flat bottom with an amount of 100 μl of cell suspension per well with 1,000 to 4,000 cells/well depending on the cell type used. Each cell line was seeded in a well known MEM 10% serum culture medium. […]
After 72 hours of incubation at 37° C. with (experimental conditions) or without (control condition) the compound to be tested, the medium was replaced by 100 μl MTT dissolved in RPMI (1640 without phenol red) at a concentration of 1 mg/ml. […] The micro-wells were shaken for 5 minutes and read on a spectrophotometer at wavelengths of 570 nm (maximum formazan absorbance) and 630 nm (back-ground noise).
For each experimental condition, the mean optical density was calculated, as well as the percentage of remaining living cells in comparison with the control.
as §1

The test system of data set [2] is murine and human hematopoietic stem and progenitor cells. In words: HALO hematotoxicity assay, overall statement. The format is cell-based. On the procedure: Investigation of the hematotoxic potential of UNBS5162 was undertaken by HemoGenix (Colorado Springs, Colo.). The effects of UNBS5162 on stem and progenitor cell populations from murine and human bone marrow were assessed using HALO (Hematopoietic/Hematotoxicity Assay through Luminescence Output) technology. Stem and hematopoietic progenitor cell populations were isolated from mouse and human bone marrow samples, plated at a concentration of 1.0×10^4 cells/well and cultured for 5 and 7 days, respectively, in the presence of growth factors and increasing concentrations of UNBS5162 ranging from 0.5 nM to 50 μM. The proliferative or growth potential of cell populations was determined from intracellular ATP (iATP) concentrations and a luciferin/luciferase bioluminescence signal detection system. All samples were assayed in eight replicates. The results are presented as estimated inhibitory concentration (IC) values.

The test system of the next data set is PC-3. Put plainly: Lysosomal membrane permeabilization (LMP), PC-3. The format is cell-based, human. Conditions: 72 hours, 1 μM or 10 μM. The source says:
It is well known that lysosomes control cell death at several levels. In response to endogenous or exogenous stress (including chemotherapy), lysosomal membrane permeabilization (LMP) can occur, leading to the release of catabolic hydrolases that can mediate caspase-dependent apoptosis, caspase-independent apoptosis-like cell death or even necrosis following high levels of LMP.

The subject of data set [3] is human A549 NSCLC orthotopic. How it is done:
The purpose of the present study was to evaluate the in vivo efficacy of UNBS5162 on human A549 NSCLC orthotopic nude mice model. The endpoint in this experiment was the survival period of the tumor-bearing mice following treatment, as indicated.
The experiment comprised 6 groups of II mice, one group with mice receiving the vehicle only (Ct group) and 5 groups receiving the treatments as indicated in the Table 13. UNBS5162 was dosed i.v. at 10 mg/kg (in lactic acid vehicle). Taxol (Paclitaxel 6 mg/mL, Bristol-Myers Squibb) was dosed i.v. at 20 mg/kg.

A further data set has as its system HCT-15. Put plainly: MTT colorimetric assay, HCT-15 cells. Conditions: Homo sapiens, 72 h, 3 days of culturing, mean of six determinations, read-out: IC50 (μM) In Vitro Growth Inhibition. It is filed as cell-based. How it is done:
as §1

The next data set concerns CXCL-1 and CXCL-8. In words: ELISA of CXCL1 and CXCL8, OE21 cells. It is filed as cell-based, human. To be noted: 5×1 μM. How it is done: ELISA determination of CXCL1 and CXCL8 (IL-8) protein levels in untreated and 5×1 μM UNBS5162-treated OE21 cells. “5×1 μM” means that tumor cells were treated in vitro for one day with 1 μM UNBS5162 and then the culture medium was replaced by fresh medium containing 1 μM UNBS5162; this procedure of renewal of cell medium containing 1 μM UNBS5162 was repeated for five consecutive days, with determination of chemokine concentration being performed 24 h (+24 h) or 72 h (+72 h) after the 5th (last) treatment of tumor cells with UNBS5162. The concentrations of the two specific chemokines (expressed as pg/mL) were normalized by the cell number determined in each sample. Each sample was assessed in triplicate. The data are presented as means (grey columns)±SEM (thin bars) in FIG. 9.

For the compound `CN(C)CCN1C(=O)c2cccc3cc(NC(N)=O)cc(c23)C1=O` [UNBS5162, N-{2-[2-(dimethylamino)ethyl]-1,3-dioxo-2,3-dihydro-1H-benzo[de]isoquinolin-5-yl}urea], the “CCL2, CXCL-I and CXCL-8 production (ELISA)” value with CCL2, CXCL-I and CXCL-8 was “a marked UNBS5162-mediated decrease in CCL2, CXCL-I and CXCL-8 production”. Moreover, the IC50 in the data set on A549 was 21.2 µM; in the data set on U-373MG (72 h, U373-MG, 3 days of culturing, mean of six determinations, read-out: IC50 (μM) In Vitro Growth Inhibition), 4.7 µM; with U-373MG (U373 MG, U-373MG, 72 hours incubation, range of molar concentrations, read-out: IC50), 5 to 10 µM; in the data set on HCT-15, 28.8 µM. The Rb protein expression result in the data set with Rb, pRb was “a decrease but not the complete disappearance of Rb protein and E2F1 expression”. The Mean body weight in data set [1] (Day 14) was determined as 22.13 g; in data set [1] (Day 16), 23.39 g; in data set [1] (Day 19), 25.72 g; in [1] (Day 21) it was 24.35 g; in data set [1] (Day 23), 25.46 g; in data set [1] (Day 26) it was 28.52 g. The “changes in body weights compared to control” value in [1] (UNBS5162 10 mg/kg i.v. 5i×3w, alone or with 1×10 gray) is on record as “No significant changes in body weights”. The “concentrations that were toxic (inhibited proliferation)” value in data set [2] is recorded as “higher than 1 μM”. In addition, the “lysosomal membrane permeabilization (LMP)” value with PC-3 is listed as “no LMP”. For the same compound, the “survival of A549 NSCLC xenograft-bearing mice” value in data set [3] (UNBS5162 10 mg/kg i.v. in combination with Taxol 20 mg/kg i.v.) is reported as “significantly increased the survival”. The “T/C (%)” value in [3] (UNBS5162 i.v. 10 mg/kg (3i × 6w)) is 102%. Further, in the data set with CXCL-1 and CXCL-8, the “CXCL-1 and CXCL-8 protein levels (ELISA)” value is “a marked decrease in CXCL-1 and CXCL-8”.
